Results as given in PMC7822030, “Hybrid Inhibitors of DNA Gyrase A and B: Design, Synthesis and Evaluation” (Pharmaceutics, 2020).
Read-outs that look alike come from different tables or passages of the source.

Assays:
E. coli DNA gyrase = biological target: T1, E. coli DNA gyrase (Escherichia coli, UniProt P0AES4+P0AES6); experiment: E. coli DNA gyrase supercoiling assay; assay type: biochemical
T1 construct: purchased Inspiralis, Norwich, UK
Experimental: (§1) The assay for determination of the IC50 values was performed according to previously reported procedures.
(§2) Briefly, inhibitory activities were determined using supercoiling (for DNA gyrase) and relaxation (for topoisomerase IV) assay kits (Inspiralis, Norwich, UK) on streptavidin-coated 96-well microtiter plates from Thermo Scientific Pierce (Thermo Fisher Scientific, Waltham, MA, USA). First, the plates were rehydrated with Wash Buffer and the biotinylated oligonucleotide TFO1 was then immobilized. After washing off the unbound oligonucleotide with Wash Buffer, the enzyme assay was performed. Into each well was added 24 µL of mixture containing 6 µL of Assay Buffer (containing ATP), 0.75 µL of relaxed (for E. coli DNA gyrase supercoiling assay) or supercoiled (for E. coli topoisomerase IV relaxation assay) pNO1 plasmid and 17.25 µL of water. Additionally, 3 µL of a solution of the inhibitor in 10% DMSO containing 0.008% Tween 20 and 3 µL of enzyme (1.5 U) in Dilution Buffer were also added to the wells. […] The TF buffer was added to terminate the enzymatic reaction and after additional incubation for 30 min at room temperature, which allowed for triplex formation (biotin–oligonucleotide–plasmid), the unbound plasmid was washed off using TF buffer. Promega Diamond dye in T10 buffer was then added. […] Here, the compounds were diluted using 2-fold serial dilution steps of the given compound. GraphPad Prism 6.0 software was used to calculate the IC50 values, which were determined in at least two independent measurements, and their means are given as the final result. […] Dose-response curves can be found in Supplementary Materials.

E. coli topoisomerase IV = biological target: T2, E. coli topoisomerase IV (Escherichia coli, UniProt P0AFI2+P20083); experiment: E. coli topoisomerase IV relaxation assay; assay type: biochemical; settings: for Inhibition of topoisomerase IV (in words): relaxation assay
T2 construct: purchased Inspiralis, Norwich, UK
Experimental: as §1, §2

A. baumannii ATCC 17978 = experiment: MIC broth microdilution, A. baumannii; assay type: cell-based; settings: Acinetobacter baumannii, ATCC17978, read-out: MIC A. baumannii ATCC #
Text: (§3) E. coli MG1655 originated from the laboratory collection of Dr. Csaba Pál. […] E. coli K-12 BW25113 single-gene knockout mutant lines ΔdapF, ΔmrcB, ΔsurA, ΔacrB and ΔtolC originated form the Keio collection copy owned by the laboratory of Dr. Csaba Pál.
(§4) Cation-adjusted Mueller Hinton II broth (MHBII) was used for growth of the bacteria under standard laboratory conditions, for antimicrobial susceptibility tests, and for selection of resistant variants. To prepare the MHBII broth, 22 g MHBII powder (containing 3 g beef extract, 17.5 g acid hydrolysate of casein, 1.5 g starch; Becton, Dickinson and Co., Franklin Lakes, NJ, USA) was dissolved in 1 L water. MHBII agar was prepared by addition of 14 g agar (Bacto; Molar Chemicals, Halásztelek, Hungary) to 1 L broth.
(§5) Minimum inhibitory concentrations (MICs) were determined using a standard serial broth microdilution technique, according to the Clinical and Laboratory Standards Institute guidelines. […] For Enterococcus sp., the cells were plated in BHI agar plates, and BHI broth was used to determine the MICs. […] Following the dilutions, each well was seeded with 5 × 10^4 bacterial cells. Each measurement was performed in three parallel replicates, and to avoid possible edge effects in the microwell plates, the outside rows (A, H) were filled with sterile medium. Following the inoculations, the plates were covered with the lids and wrapped in polyethylene plastic bags, to minimize evaporation but to allow O2 transfer. […] After incubation, the OD600 of each well was measured using a microplate reader (Synergy 2; Biotek, Winooski, VT, USA).

P. aeruginosa ATCC 27863 = experiment: MIC broth microdilution, P. aeruginosa; assay type: cell-based; settings: Pseudomonas aeruginosa
Text: as §3, §4, §5

K. pneumoniae ATCC 10031 = experiment: MIC broth microdilution, K. pneumoniae; assay type: cell-based; settings: Klebsiella pneumoniae, ATCC10031, read-out: MIC K. pneumoniae ATCC #
Text: as §3, §4, §5

[1] = tested on: E. cloacae spp. cloacae ATCC 13047; experiment: MIC broth microdilution, E. cloacae; assay type: cell-based, Enterobacter cloacae; settings: Enterobacter cloacae, ATCC13047, read-out: MIC E. cloacae spp. cloacae ATCC #
E. coli ATCC 25922 = experiment: MIC broth microdilution, E. coli ATCC 25922; assay type: cell-based; settings: Escherichia coli, ATCC25922, read-out: MIC E. coli ATCC #
Text: as §3, §4, §5

E. coli BW25113 WT = experiment: MIC, E. coli BW25113 wild-type; assay type: cell-based; settings: Escherichia coli, BW25113, read-out: Minimum Inhibitory Concentration E. coli BW# WT
Text: as §3, §4, §5

E. coli BW25113 ΔacrB = assay type: cell-based, Escherichia coli
Text: as §3, §4, §5

E. coli BW25113 ΔdapF = assay type: cell-based, Escherichia coli
Text: as §3, §4, §5

E. coli BW25113 ΔmrcB = assay type: cell-based, Escherichia coli
Text: as §3, §4, §5

E. coli BW25113 ΔsurA = assay type: cell-based, Escherichia coli
Text: as §3, §4, §5

E. coli BW25113 ΔtolC = assay type: cell-based, Escherichia coli; settings: for MIC change, ΔtolC mutant versus wild-type E. coli BW25113: improvement of MIC in impaired efflux pump mutant
Text: as §3, §4, §5

E. coli MG1655 WT = experiment: MIC, E. coli MG1655 wild-type with PAβN; assay type: cell-based, Escherichia coli; settings: for MIC: Escherichia coli, MG1655, read-out: Minimum Inhibitory Concentration E. coli MG# WT, 50 µg/mL PAβN, molar conversion in parentheses; for Minimum Inhibitory Concentration E. coli MG1655 WT: in the presence of 50 µg/mL PAβN
Text: as §3, §4
as §5, with “USA). […]” for “USA).”

[2] = tested on: E. coli MG1655 GyrA S83L, D87N ParC S80I, E84G; experiment: microbe, parasite or virus in culture; assay type: cell-based, Escherichia coli; settings: for MIC: Escherichia coli, MG1655, read-out: Minimum Inhibitory Concentration E. coli MG# GyrA S83L, D87N ParC S80I, E84G; for Minimum Inhibitory Concentration E. coli MG1655 GyrA S83L, D87N ParC S80I, E84G: in the presence of 50 µg/mL PAβN
Text: as §3, §4, §5
(§6) These mutated amino acids are the most common sites for target-based resistance in E. coli.

[3] = tested on: E. coli MG1655 GyrB R136C; experiment: microbe, parasite or virus in culture; assay type: cell-based, Escherichia coli; settings: for MIC: Escherichia coli, MG1655, read-out: Minimum Inhibitory Concentration E. coli MG# GyrB R#C; for Minimum Inhibitory Concentration E. coli MG1655 GyrB R136C: in the presence of 50 µg/mL PAβN
Text: as §3, §4, §5, §6

[4] = molar conversion in parentheses
[5] = ATCC27863, 18 h, read-out: MIC P. aeruginosa ATCC #
[6] = ATCC27863, read-out: MIC P. aeruginosa ATCC #, molar conversion in parentheses, read-out: MIC P. aeruginosa ATCC 27863

| SMILES | IC50 (E. coli DNA gyrase) | IC50 (E. coli topoisomerase IV) | Inhibition of topoisomerase IV (in words) (E. coli topoisomerase IV) | MIC (A. baumannii ATCC 17978; broth microdilution, 18 h) | MIC (A. baumannii ATCC 17978; [4]) | MIC (P. aeruginosa ATCC 27863; [5]) | MIC (P. aeruginosa ATCC 27863; [6]) | MIC (K. pneumoniae ATCC 10031; broth microdilution, 18 h) | MIC (K. pneumoniae ATCC 10031; [4]) | MIC ([1]; broth microdilution, 18 h) | MIC [1, 4] | MIC (E. coli ATCC 25922; broth microdilution, 18 h) | MIC (E. coli ATCC 25922; [4]) | MIC (E. coli BW25113 WT; [4]) | MIC (E. coli BW25113 WT; wild-type) | Minimum Inhibitory Concentration E. coli BW25113 ΔacrB (E. coli BW25113 ΔacrB; efflux pump mutant) | Minimum Inhibitory Concentration E. coli BW25113 ΔacrB (E. coli BW25113 ΔacrB; [4]) | Minimum Inhibitory Concentration E. coli BW25113 ΔdapF (E. coli BW25113 ΔdapF; impaired cell-wall mutant) | Minimum Inhibitory Concentration E. coli BW25113 ΔdapF (E. coli BW25113 ΔdapF; [4]) | Minimum Inhibitory Concentration E. coli BW25113 ΔmrcB (E. coli BW25113 ΔmrcB; impaired cell-wall mutant) | further results |
| --- | --- | --- | --- | --- | --- | --- | --- | --- | --- | --- | --- | --- | --- | --- | --- | --- | --- | --- | --- | --- | --- |
| Cc1[nH]c(C(=O)Nc2nc3ccc(C(=O)NCCC(=O)N4CCN(c5cc6c(cc5F)c(=O)c(C(=O)O)cn6C5CC5)CC4)cc3s2)c(Cl)c1Cl [Compound 7b, 1-Cyclopropyl-7-(4-(3-(2-(3,4-dichloro-5-methyl-1H-pyrrole-2-carboxamido)benzo[d]thiazole-6-carboxamido)propanoyl)piperazin-1-yl)-6-fluoro-4-oxo-1,4-dihydroquinoline-3-carboxylic acid] | 0.13 ± 0.01 µM | 3.1 µM | low micromolar | > 64 µg/mL | > 84.8 µM | > 64 µg/mL | > 84.8 µM | 8 µg/mL | 10.6 µM | > 64 µg/mL | > 84.8 µM | > 64 µg/mL | > 84.8 µM | > 84.8 µM | > 64 µg/mL | >64 µg/mL | (>84.8 µM) | >64 µg/mL | (>84.8 µM) | >64 µg/mL | Minimum Inhibitory Concentration E. coli BW25113 ΔmrcB (E. coli BW25113 ΔmrcB; [4]): (>84.8 µM); Minimum Inhibitory Concentration E. coli BW25113 ΔsurA (E. coli BW25113 ΔsurA; impaired cell-wall mutant): >64 µg/mL; Minimum Inhibitory Concentration E. coli BW25113 ΔsurA (E. coli BW25113 ΔsurA; [4]): (>84.8 µM); Minimum Inhibitory Concentration E. coli BW25113 ΔtolC (E. coli BW25113 ΔtolC; efflux pump mutant): 2 µg/mL; MIC change, ΔtolC mutant versus wild-type E. coli BW25113 (E. coli BW25113 ΔtolC): above 32 fold; Minimum Inhibitory Concentration E. coli BW25113 ΔtolC (E. coli BW25113 ΔtolC; [4]): (2.65 µM); MIC (E. coli MG1655 WT): 1.32 µM; Minimum Inhibitory Concentration E. coli MG1655 WT (E. coli MG1655 WT): 1 µg/mL; MIC [2]: 1.32 µM; Minimum Inhibitory Concentration E. coli MG1655 GyrA S83L, D87N ParC S80I, E84G [2]: 1 µg/mL; MIC [3]: 1.32 µM; Minimum Inhibitory Concentration E. coli MG1655 GyrB R136C [3]: 1 µg/mL |
| Cc1[nH]c(C(=O)Nc2nc3c(OCc4ccccc4)cc(C(=O)NCCOCCN4CCN(c5cc6c(cc5F)c(=O)c(C(=O)O)cn6C5CC5)CC4)cc3s2)c(Cl)c1Cl.Cl [Compound 11b, 1-(2-(2-(4-(Benzyloxy)-2-(3,4-dichloro-5-methyl-1H-pyrrole-2-carboxamido)benzo[d]thiazole-6-carboxamido)ethoxy)ethyl)-4-(3-carboxy-1-cyclopropyl-6-fluoro-4-oxo-1,4-dihydroquinolin-7-yl)piperazin-1-ium chloride] | 0.014 ± 0.009 µM | 2.5 ± 1.1 µM | low micromolar | 64 µg/mL | 72.9 µM | > 64 µg/mL | > 72.9 µM | 1 µg/mL | 1.14 µM | 16 µg/mL | 18.2 µM | 4 µg/mL | 4.56 µM | 9.11 µM | 8 µg/mL | 8 µg/mL | (9.11 µM) | 8 µg/mL | (9.11 µM) | 8 µg/mL | Minimum Inhibitory Concentration E. coli BW25113 ΔmrcB (E. coli BW25113 ΔmrcB; [4]): (9.11 µM); Minimum Inhibitory Concentration E. coli BW25113 ΔsurA (E. coli BW25113 ΔsurA; impaired cell-wall mutant): 8 µg/mL; Minimum Inhibitory Concentration E. coli BW25113 ΔsurA (E. coli BW25113 ΔsurA; [4]): (9.11 µM); Minimum Inhibitory Concentration E. coli BW25113 ΔtolC (E. coli BW25113 ΔtolC; efflux pump mutant): 1 µg/mL; MIC change, ΔtolC mutant versus wild-type E. coli BW25113 (E. coli BW25113 ΔtolC): 8 fold; Minimum Inhibitory Concentration E. coli BW25113 ΔtolC (E. coli BW25113 ΔtolC; [4]): (1.14 µM); MIC (E. coli MG1655 WT): 1.14 µM; Minimum Inhibitory Concentration E. coli MG1655 WT (E. coli MG1655 WT): 1 µg/mL; MIC [2]: 4.56 µM; Minimum Inhibitory Concentration E. coli MG1655 GyrA S83L, D87N ParC S80I, E84G [2]: 4 µg/mL; MIC [3]: 2.28 µM; Minimum Inhibitory Concentration E. coli MG1655 GyrB R136C [3]: 2 µg/mL |
